Assay results: patent publication US20150374725A1, “METHODS AND COMPOSITIONS FOR TREATING AND PREVENTING INTESTINAL INJURY AND DISEASES RELATED TO TIGHT JUNCTION DYSFUNCTION” (PRELIEF INC., priority 2013, published 2015)

How the values were obtained:
[1] = test system: Caco-2 cells; experiment: Baseline mannitol flux across Caco-2 monolayers on transwell inserts; format: cell-based, human; conditions: increasing concentrations of CGP, FIG. 1
Method: Experiments were conducted on Caco-2 cells, a line of heterogeneous human epithelial colorectal adenocarcinoma cells derived from a colorectal carcinoma and grown on transwell permeable inserts. Despite their origins, in culture these cells express the characteristics of small intestinal enterocytes upon prolonged culture (C. Jumarie et al. J Cell. Physiol. 149: 24-33, (1991)). They are widely used as a model of transepithelial transport in the small intestine, and are considered a model for celiac disease (G. Iacomino et al. J Agric Food Chem. 6; 61(5):1088-962013 (2013); I. Caputo et al. PLoS One. 7(9):e45209 (2012); T. Rauhavirta et al. J Clin Immunol.; 33(1):134-42 (2013)).
The TEER results are verified by measuring the flux of mannitol, a polyhydroxy alcohol, across the cell monolayer. Mannitol flux is exclusively by the paracellular route, so that its movement is inversely proportional to the tightness of the tight junctions. Flux is measured in both apical to basolateral and basolateral to apical directions. The rate of flux is used to calculate a permeability coefficient for the monolayers. […]
Baseline values were obtained for each of these parameters in unstimulated cells in the presence and absence of increasing concentrations of CGP. The time course of TEER development, as well as the appropriate concentration of CGP, was determined experimentally. […]

[2] = test system: Caco-2 cells; experiment: Baseline trans-epithelial electrical resistance (TEER); format: cell-based, human
[3] = test system: Caco-2 cells; experiment: Baseline sphingosine 1-phosphate in media by ELISA; format: cell-based, human; conditions: 24 hours incubation, increasing concentrations of CGP, FIG. 3
Method: It is believed that CGP elevates S1P concentrations by inhibiting dephosphorylation. S1P concentrations are measured in the media of Caco-2 cells using a commercially available ELISA kit (e.g., Echelon Catalog # K-1900). The S1P concentrations are measured in the media of Caco-2 cells in the presence and absence of CGP. Cells were incubated for 24 hours in the presence of increasing concentrations of CGP. The media was removed and assayed for […] by enzyme-linked immunoassay (ELISA).

[4] = test system: Caco-2 cells; experiment: Baseline E-cadherin expression; format: cell-based, human
Method: (3) E-Cadherin Expression:
E-cadherin is the principle protein of tight junctions. The level of E-cadherin is measured in homogenized Caco-2 cells by western blot analysis using commercially available antibodies. Since it is possible that E-cadherin might be expressed as a protein, but sequestered away from the cell membrane, surface E-cadherin is also measured using either flow cytometry or fluorescent microscopy. The ratio of surface to total E-cadherin is calculated. The expression levels of E-cadherin are measured in Caco-2 cells in the presence and absence of CGP. The expression levels of other proteins of tight junctions in Caco-2 cells in the presence or absence of CGP can also be measured using methods known in the art in view of the present disclosure.

[5] = test system: Caco-2 cells; experiment: Mannitol Flux Assay under ischemia-mimicking conditions (no glucose, 1% oxygen); format: cell-based, human
Method: Mannitol Flux Assay was performed as follows. At the start of the experiment (time 0), the media on the cells was changed to one containing no glucose and no fetal calf serum, and the environment was changed from 95% […]/5% CO2, to 1% oxygen, 5% CO2 and 94% nitrogen. These conditions mimic ischemia (no food, no oxygen).
It was observed that cells responded to the ischemia conditions by letting go of non-essential functions, like maintaining tight junctions. It appears that by adding CGP, the cells were able to retain tight junction integrity for a longer period of time.
Specifically, Table 2 and FIG. 4 show the percentage increase in mannitol penetration at two and four hours after CGP administration. The movement of mannitol is inversely proportional to the tightness of the tight junctions. It can be seen that the magnitude of the increase in tightness of the tight junctions (or decrease in mannitol flux) was proportional to the concentration of CGP in the media. While it is possible that the cells are merely using the glycerol phosphate to replace glucose, this is extremely unlikely, as the effect persists even at 0.000001 molar CGP. The usual glucose concentration in the media is around 10 mM, ten times greater than the highest CGP concentration, and 10,000 times greater than the lowest concentration of CGP.

[6] = test system: Caco-2 cells; experiment: Apical to basolateral [14C]mannitol flux during hypoxia; format: cell-based, human; conditions: FIG. 5
Method: (§1) The effect of hypoxia on transepithelial permeability was measured for each parameter in the presence and absence of CGP. Cells were grown to confluence in normoxic conditions on transwell inserts, then transferred to a hypoxia chamber (95% N2/5% CO2) and media was changed to one sparged with 95% N2/5% CO2 and containing no glucose. Under these conditions, which simulate ischemia, the partial pressure of residual oxygen is less than 25 mm Hg (6%). Control wells contained only media; the remaining wells contained increasing concentrations of calcium glycerophosphate. TEER and mannitol flux were measured in the hypoxia chamber. E-Cadherin expression or S1P determination was determined in room air using samples prepared in the hypoxia chamber. Hypoxia may decrease TEER and S1P, increase both apical to basolateral and basolateral to apical mannitol flux without changing E-cadherin expression. These effects may be mitigated by CGP.
Hypoxia/ischemia is a state of diminished oxygen and nutrient supply such that cellular demands are not met. […] It was hypothesized that the increased transepithelial permeability is the consequence of intestinal hypoxia (itself a consequence of diversion of blood flow from the gut during heavy exercise), and that the permeability might be alleviated by CGP treatment. […]

[7] = test system: Caco-2 cells; experiment: TEER during hypoxia; format: cell-based, human; conditions: FIG. 6
Method: as §1
Hypoxia/ischemia is a state of diminished oxygen and nutrient supply such that cellular demands are not met. […]
For these studies, cells were grown on transwells until confluent, as measured by TEER values of […]. As there is some variability in baseline TEER, all data have been expressed as a % of baseline TEER. […]

[8] = test system: Caco-2 cells; experiment: Transepithelial mannitol flux induced by cytomix; format: cell-based, human; conditions: cytomix plus CGP, FIG. 7
Method: The effect of exogenous cytokines was measured for each parameter in the presence and absence of CGP. […] Cells were grown to confluence on transwell inserts, then challenged with a mixture of the cytokines TNFα (tumor necrosis factor alpha), ILβ (interleukin beta), and IFγ (interferon gamma) (“cytomix”) in the presence or absence of increasing concentrations of CGP. At the appropriate time points, apical to basolateral mannitol flux was measured. TEER, E-Cadherin expression and media concentrations of S1P were measured in separate experiments.

[9] = test system: Caco-2 cells; experiment: TEER during cytomix treatment; format: cell-based, human; conditions: FIG. 8
Method: The effect of exogenous cytokines was measured for each parameter in the presence and absence of CGP. Both hypoxia and celiac disease are characterized by the release of cytokines by cells of the immune system. These inflammatory mediators increase monolayer permeability (M. Bayardo et al. Clin Exp Immunol.; 168(1):95-104 (2012)). Cells were grown to confluence on transwell inserts, then challenged with a mixture of the cytokines TNFα (tumor necrosis factor alpha), ILβ (interleukin beta), and IFγ (interferon gamma) (“cytomix”) in the presence or absence of increasing concentrations of CGP. At the appropriate time points, apical to basolateral mannitol flux was measured. TEER, E-Cadherin expression and media concentrations of S1P were measured in separate experiments. […] Exogenous cytokines may decrease TEER and increase mannitol flux.
Cytokines are a category of small proteins that are important in cell-cell signaling. There are many types and functions of cytokines. Three of the cytokines, TNFα (tumor necrosis factor alpha), ILβ (interleukin beta), and IFγ (interferon gamma) are involved in cell signaling during inflammation. […] First, neutrophils and other cells mediating the immune response are recruited to ischemic tissue. Second, the intestinal damage of celiac disease is dependent on inflammation. […]

[10] = Solubility in water; format: physicochemical
[11] = test system: cultured enterocytes; conditions: cited from earlier work

**Q.** With `O=P([O-])([O-])OCC(O)CO.[Ca+2]` (centres unmarked) [CGP, 1,2,3-propanetriol, mono(dihydrogen phosphate) calcium salt (1:1)] as the compound, how does the “effect on baseline mannitol flux across the barrier” value [1] read?
**A.** no significant effect

**Q.** And the “persistence of the CGP effect on baseline TEER” value ([2]; FIG. 2)?
**A.** gone by four hours

**Q.** What about the “effect on the citrate-induced reduction in baseline TEER” value ([2]; FIG. 2, noticeable at two hours) of the same compound?
**A.** prevented

**Q.** What about the “effect on sphingosine 1-phosphate concentrations in the media” value [3] of the same compound?
**A.** does not appear to have any effect

**Q.** And the “effect on E-Cadherin expression” value [4]?
**A.** may increase, but most likely does not change

**Q.** And the “mannitol penetration, Disintegrations Per Minute” value ([5]; CGP 0.000001 M, 2 hours)?
**A.** 77.04 Disintegrations Per Minute

**Q.** What about the “mannitol penetration, Disintegrations Per Minute” value ([5]; CGP 0.000001 M, 4 hours) of the same compound?
**A.** 275.0632 Disintegrations Per Minute

**Q.** And the “mannitol penetration, Disintegrations Per Minute” value ([5]; CGP 0.00001 M, 2 hours)?
**A.** 67.95 Disintegrations Per Minute

**Q.** What about the “mannitol penetration, Disintegrations Per Minute” value ([5]; CGP 0.00001 M, 4 hours) of the same compound?
**A.** 195.9237 Disintegrations Per Minute

**Q.** What about the “mannitol penetration, Disintegrations Per Minute” value ([5]; CGP 0.0001 M, 2 hours) of the same compound?
**A.** 50.47 Disintegrations Per Minute

**Q.** And the “mannitol penetration, Disintegrations Per Minute” value ([5]; CGP 0.0001 M, 4 hours)?
**A.** 188.7996 Disintegrations Per Minute

**Q.** What about the “mannitol penetration, Disintegrations Per Minute” value ([5]; CGP 0.001 M, 2 hours) of the same compound?
**A.** 23.11 Disintegrations Per Minute

**Q.** What about the “mannitol penetration, Disintegrations Per Minute” value ([5]; CGP 0.001 M, 4 hours) of the same compound?
**A.** 150.2845 Disintegrations Per Minute

**Q.** What about the “lowest CGP concentration at which the effect on mannitol penetration persists” value ([5]; ischemia-mimicking conditions, Table 2 and FIG. 4) of the same compound?
**A.** 1000 nM

**Q.** And the “time dependence of the effect on hypoxia induced mannitol flux” value [6]?
**A.** diminished by four hours and absent by five hours

**Q.** And the “effect on hypoxia induced mannitol flux” value ([6]; concentration dependent)?
**A.** significantly reduced

**Q.** And the “effect on TEER during hypoxia (% of baseline TEER)” value [7]?
**A.** preserved TEER in a concentration dependent manner

**Q.** And the “time dependence of the effect on TEER during hypoxia” value [7]?
**A.** by five hours there was no longer a discernible effect

**Q.** What about the “effect on cytomix-induced increase in mannitol permeability” value [8] of the same compound?
**A.** delayed the permeability increase in a concentration-dependent manner

**Q.** And the “CGP effect on TEER” value ([9]; 24 hours)?
**A.** all CGP effect was lost

**Q.** What about the “TEER versus cytomix alone and control” value ([9]; ten hours, all CGP treated groups except 1 μM) of the same compound?
**A.** significantly greater than cytomix alone and not different from control

**Q.** And the solubility in water [10]?
**A.** approximately 1 gram in 100 mL

**Q.** With `CCCCCCCCCCCCC/C=C/[C@@H](O)[C@@H](N)COP(=O)(O)O` [S1P, sphingosine-1-phosphate] as the compound, how does the “effect on tightness of existing tight junctions” value [11] read?
**A.** increases
